Source: patent US8952024B2, “Herbicidal pyrimidone derivatives” (E I du Pont de Nemours and Company, priority 2009, dated 2015)

How the values were obtained:
Type in all cases: in vivo
[1] = test system: soybean (Glycine max); assay: Test B pre-/postemergence plant response; settings: for Soybean plant response rating (0 to 100 scale): 62 g ai/ha, 0 is no effect, 13 to 15 days
How it was run: (§1)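 Ratings reflect visual comparison with untreated controls 13 to 15 days after application, from 0 (no effect) to 100 (complete control). Application was preemergence to seeded loam/sand soil or postemergence to 1- to 4-leaf plants, with compound in a non-phytotoxic, surfactant-containing solvent.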

[2] = test system: kochia (Kochia scoparia); assay: Test B pre-/postemergence plant response; settings: for Kochia plant response rating (0 to 100 scale): 62 g ai/ha, 0 is no effect, 13 to 15 days
How it was run: as §1

[3] = test system: ragweed (common ragweed, Ambrosia elatior); assay: Test B pre-/postemergence plant response; settings: for Ragweed plant response rating (0 to 100 scale): 62 g ai/ha, 0 is no effect, 13 to 15 days
How it was run: as §1

[4] = test system: cocklebur (Xanthium strumarium); assay: Test B pre-/postemergence plant response; settings: for Cocklebur plant response rating (0 to 100 scale): 62 g ai/ha, 0 is no effect, 13 to 15 days
How it was run: as §1

[5] = test system: wild oat (Avena fatua); assay: Test B pre-/postemergence plant response; settings: for Oat, Wild plant response rating (0 to 100 scale): 62 g ai/ha, 0 is no effect, 13 to 15 days
How it was run: as §1

[6] = test system: green foxtail (Setaria viridis); assay: Test B pre-/postemergence plant response; settings: for Foxtail, Green plant response rating (0 to 100 scale): 62 g ai/ha, 0 is no effect, 13 to 15 days
How it was run: as §1

[7] = test system: pigweed (Amaranthus retroflexus); assay: Test B pre-/postemergence plant response; settings: for Pigweed plant response rating (0 to 100 scale): 62 g ai/ha, 0 is no effect, 13 to 15 days
How it was run: as §1

[8] = test system: lambsquarters (Chenopodium album); assay: Test B pre-/postemergence plant response; settings: for Lambsquarters plant response rating (0 to 100 scale): 62 g ai/ha, 0 is no effect, 13 to 15 days
How it was run: as §1

[9] = test system: bermudagrass (Cynodon dactylon); assay: Test B pre-/postemergence plant response; settings: for Bermudagrass plant response rating (0 to 100 scale): 62 g ai/ha, 0 is no effect, 13 to 15 days
How it was run: as §1

[10] = test system: giant foxtail (Setaria faberii); assay: Test B pre-/postemergence plant response; settings: for Foxtail, Giant plant response rating (0 to 100 scale): 62 g ai/ha, 0 is no effect, 13 to 15 days
How it was run: as §1

[11] = test system: johnsongrass (Sorghum halepense); assay: Test B pre-/postemergence plant response; settings: for Johnsongrass plant response rating (0 to 100 scale): 62 g ai/ha, 0 is no effect, 13 to 15 days
How it was run: as §1

[12] = test system: corn (Zea mays); assay: Test B pre-/postemergence plant response; settings: for Corn plant response rating (0 to 100 scale): 62 g ai/ha, 0 is no effect, 13 to 15 days
How it was run: as §1

[13] = test system: ducksalad (Heteranthera limosa); assay: Test B flooded paddy test; settings: for Plant response rating, Flood, Ducksalad: 250 g ai/ha, flooded paddy test, visual rating on 0 to 100 scale (0 no effect, 100 complete control) after 13 to 15 days; for Plant response rating, Ducksalad: Flood (flooded paddy test), 13 to 15 days; for Ducksalad plant response rating: Flood, 31 g ai/ha, scale 0 to 100 (0 no effect, 100 complete control)
How it was run: (§2)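 Rice, umbrella sedge, ducksalad and barnyardgrass were grown to the 2-leaf stage, flooded to 3 cm, and compound was applied directly to the paddy water, with that depth kept throughout. After 13 to 15 days in the greenhouse, plants were visually rated against controls on a 0 (no effect) to 100 (complete control) scale.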

[14] = test system: barnyardgrass (Echinochloa crus-galli); assay: Test B flooded paddy test; settings: for Plant response rating, Flood, Barnyardgrass: 250 g ai/ha, flooded paddy test, visual rating on 0 to 100 scale (0 no effect, 100 complete control) after 13 to 15 days; for Plant response rating, Barnyardgrass: Flood (flooded paddy test), 13 to 15 days; for Barnyardgrass plant response rating: Flood, 31 g ai/ha, scale 0 to 100 (0 no effect, 100 complete control)
How it was run: as §2

[15] = test system: rice (Oryza sativa); assay: Test B flooded paddy test; settings: for Plant response rating, Flood, Rice: 250 g ai/ha, flooded paddy test, visual rating on 0 to 100 scale (0 no effect, 100 complete control) after 13 to 15 days; for Plant response rating, Rice: Flood (flooded paddy test), 13 to 15 days; for Rice plant response rating: Flood, 31 g ai/ha, scale 0 to 100 (0 no effect, 100 complete control)
How it was run: as §2

[16] = test system: umbrella sedge (Cyperus difformis); assay: Test B flooded paddy test; settings: for Plant response rating, Flood, Sedge, Umbrella: 250 g ai/ha, flooded paddy test, visual rating on 0 to 100 scale (0 no effect, 100 complete control) after 13 to 15 days; for Plant response rating, Sedge, Umbrella: Flood (flooded paddy test), 13 to 15 days; for Sedge, Umbrella plant response rating: Flood, 31 g ai/ha, scale 0 to 100 (0 no effect, 100 complete control)
How it was run: as §2

[17] = 31 g ai/ha, postemergence, scale 0 to 100, 0 is no effect, 100 is complete control
[18] = postemergence, 100 is complete control
[19] = Postemergence, 250 g ai/ha, scale 0 to 100 (0 no effect, 100 complete control)
[20] = Postemergence, 125 g ai/ha, visual rating after 13 to 15 days, scale 0 (no effect) to 100 (complete control)
[21] = 62 g ai/ha, scale of 0 to 100 where 0 is no effect and 100 is complete control
[22] = 125 g ai/ha, scale 0 to 100, 0 is no effect, 100 is complete control
[23] = Postemergence, 125 g ai/ha, scale 0 to 100 (0 no effect, 100 complete control)

COCCOCCn1c(-c2ccccc2)ncc(C(=O)C2=C(O)CCCC2=O)c1=O [Compound 91]
70: Plant response rating, Foxtail, Green [6, 17]
65: Cocklebur plant response rating (0 to 100 scale) [4, 18] | Plant response rating, Johnsongrass [11, 17] | Ducksalad plant response rating [13] | Plant response rating, Flood, Barnyardgrass [14]
80: Kochia plant response rating (0 to 100 scale) [2, 18]
30: Plant response rating, Oat, Wild [5, 17] | Oat, Wild plant response rating (0 to 100 scale) [5, 18]
50: Plant response rating, Oat, Wild [5, 19]
15: Barnyardgrass plant response rating [14] | Plant response rating, Flood, Rice [15] | Plant response rating, Rice [15, 21] | Plant response rating, Rice [15, 22]
100: Plant response rating, Pigweed [7, 17] | Pigweed plant response rating (0 to 100 scale) [7, 18] | Plant response rating, Pigweed [7, 19] | Lambsquarters plant response rating (0 to 100 scale) [8, 18] | Plant response rating, Lambsquarters [8, 19] | Plant response rating, Johnsongrass [11, 19] | Plant response rating, Flood, Ducksalad [13] | Plant response rating, Flood, Sedge, Umbrella [16] | Plant response rating, Sedge, Umbrella [16, 22]
20: Plant response rating, Kochia [2, 17] | Plant response rating, Cocklebur [4, 17] | Plant response rating, Barnyardgrass [14, 21]
95: Plant response rating, Kochia [2, 19] | Plant response rating, Cocklebur [4, 20] | Plant response rating, Cocklebur [4, 19] | Bermudagrass plant response rating (0 to 100 scale) [9, 18] | Plant response rating, Bermudagrass [9, 20] | Plant response rating, Bermudagrass [9, 19] | Plant response rating, Sedge, Umbrella [16, 21]
25: Plant response rating, Corn [12, 17]
90: Johnsongrass plant response rating (0 to 100 scale) [11, 18] | Plant response rating, Ducksalad [13, 21] | Plant response rating, Ducksalad [13, 22]
85: Soybean plant response rating (0 to 100 scale) [1, 18] | Plant response rating, Ragweed [3, 17] | Ragweed plant response rating (0 to 100 scale) [3, 18] | Foxtail, Green plant response rating (0 to 100 scale) [6, 18] | Plant response rating, Lambsquarters [8, 17] | Plant response rating, Foxtail, Giant [10, 17]
35: Corn plant response rating (0 to 100 scale) [12, 18]
45: Plant response rating, Corn [12, 20]
0: Rice plant response rating [15]
98: Plant response rating, Soybean [1, 19] | Plant response rating, Ragweed [3, 19] | Plant response rating, Foxtail, Green [6, 19] | Foxtail, Giant plant response rating (0 to 100 scale) [10, 18] | Plant response rating, Foxtail, Giant [10, 19]
75: Plant response rating, Soybean [1, 17] | Plant response rating, Bermudagrass [9, 17] | Sedge, Umbrella plant response rating [16]
60: Plant response rating, Corn [12, 19] | Plant response rating, Barnyardgrass [14, 22]

O=C1CCCC(O)=C1C(=O)c1cnc(-c2ccsc2)n(C2CCCCC2)c1=O [Compound 99]
98: Plant response rating, Foxtail, Green [6, 19] | Plant response rating, Lambsquarters [8, 17] | Plant response rating, Bermudagrass [9, 19]
0: Barnyardgrass plant response rating [14] | Plant response rating, Rice [15, 21] | Plant response rating, Rice [15, 22] | Rice plant response rating [15]
40: Plant response rating, Oat, Wild [5, 23] | Plant response rating, Corn [12, 17] | Plant response rating, Ducksalad [13, 21]
100: Soybean plant response rating (0 to 100 scale) [1, 18] | Plant response rating, Soybean [1, 23] | Plant response rating, Soybean [1, 19] | Plant response rating, Kochia [2, 23] | Plant response rating, Kochia [2, 19] | Cocklebur plant response rating (0 to 100 scale) [4, 18] | Plant response rating, Cocklebur [4, 23] | Plant response rating, Cocklebur [4, 19] | Plant response rating, Pigweed [7, 17] | Pigweed plant response rating (0 to 100 scale) [7, 18] | Plant response rating, Pigweed [7, 23] | Plant response rating, Pigweed [7, 19] | Lambsquarters plant response rating (0 to 100 scale) [8, 18] | Plant response rating, Lambsquarters [8, 23] | Plant response rating, Lambsquarters [8, 19]
95: Plant response rating, Ragweed [3, 19] | Plant response rating, Cocklebur [4, 17] | Plant response rating, Foxtail, Green [6, 23] | Plant response rating, Foxtail, Giant [10, 23] | Plant response rating, Foxtail, Giant [10, 19] | Plant response rating, Johnsongrass [11, 19]
90: Foxtail, Green plant response rating (0 to 100 scale) [6, 18]
80: Plant response rating, Kochia [2, 17] | Kochia plant response rating (0 to 100 scale) [2, 18] | Ragweed plant response rating (0 to 100 scale) [3, 18] | Plant response rating, Ragweed [3, 23] | Plant response rating, Oat, Wild [5, 19] | Plant response rating, Bermudagrass [9, 23] | Foxtail, Giant plant response rating (0 to 100 scale) [10, 18] | Plant response rating, Johnsongrass [11, 23] | Plant response rating, Corn [12, 19] | Plant response rating, Flood, Ducksalad [13]
60: Plant response rating, Flood, Rice [15]
55: Plant response rating, Flood, Barnyardgrass [14]
75: Plant response rating, Bermudagrass [9, 17] | Bermudagrass plant response rating (0 to 100 scale) [9, 18] | Plant response rating, Foxtail, Giant [10, 17] | Johnsongrass plant response rating (0 to 100 scale) [11, 18] | Plant response rating, Ducksalad [13, 22]
70: Plant response rating, Johnsongrass [11, 17]
65: Corn plant response rating (0 to 100 scale) [12, 18] | Plant response rating, Corn [12, 23] | Plant response rating, Sedge, Umbrella [16, 22]
85: Plant response rating, Flood, Sedge, Umbrella [16]
10: Plant response rating, Oat, Wild [5, 17]
20: Oat, Wild plant response rating (0 to 100 scale) [5, 18] | Plant response rating, Barnyardgrass [14, 21] | Plant response rating, Barnyardgrass [14, 22]
50: Plant response rating, Foxtail, Green [6, 17] | Plant response rating, Sedge, Umbrella [16, 21] | Sedge, Umbrella plant response rating [16]
30: Ducksalad plant response rating [13]
